The structures appear in SMILES notation.

The melting point is the temperature, or range, at which the solid turns liquid. Consider `CCCCCCCCC(=O)O[C@H]1CC[C@@]2(C)C(=CC[C@H]3[C@@H]4CC[C@H]([C@H](C)CCCC(C)C)[C@@]4(C)CC[C@@H]32)C1` [cholesteryl nonanoate], for which the melting point worked out at 77 °C.
For the compound `CC1=C(C)C(=O)C(C(CCCCCC(=O)O)c2ccccc2)=C(C)C1=O` (centres undefined) [seratrodast], the melting point was 128 °C.
As for `C=C(C#N)C(=O)OCC` [Ethyl 2-cyanoacrylate], the figure is -22 °C.
Under `CC(=O)O[Si](C)(OC(C)=O)OC(C)=O` [triacetoxy(methyl)silane] stands 43 °C; under `Cc1c(C)n(C(N)=O)c2ccccc12` [2,3-dimethyl-1H-indole-1-carboxamide], 188 °C.
The compound `CCCCCC(=O)OC(=O)CCCCC` [hexanoic anhydride] came in with a melting point of -40 °C.
The compound `Clc1cc(-c2ccccn2)nc(-c2ccccn2)c1` [4'-chloro-2,2':6',2''-terpyridine] registered a melting point of 150 °C.
Under `C#CCOc1c(Cl)cccc1Cl` [3-(2,6-dichlorophenoxy)-1-propyne] stands 44 °C.
On to `O=P(O)(O)CP(=O)(O)O` [methylenediphosphonic acid], for which the melting point is 203 °C.
As for `CCOP(=O)(OCC)OCC` [Triethyl phosphate], the figure is -56 °C.
Under `COC(=O)c1c(C)nn(C(=O)OC)c1C` [dimethyl 3,5-dimethyl-1H-pyrazole-1,4-dicarboxylate] stands 90 °C.
As for `CC(=O)NS(=O)(=O)c1ccc(N)cc1` [sulfacetamide], the melting point came out at 182 °C.
As for `Cc1ccn(C(N)=O)n1` [1-carbamoyl-3-methylpyrazole], the figure is 148 °C; as for `CC(C)Cc1ccc(C(C)C(=O)O)cc1` (centres undefined) [2-(4-Isobutylphenyl)propanoic acid], 77.5 °C.
Under `Nc1c(Br)cc(Br)c(Cl)c1Cl` [4,6-dibromo-2,3-dichloroaniline] stands 97 °C; under `O=C1CCCCCCC1` [cyclooctanone], 41 °C.
Under `N#Cc1ccc(-c2ccc(C#N)cc2)cc1` [p,p'-dicyanobiphenyl] stands 237 °C; under `CC(=O)c1ccccc1C(N)=O` [o-acetylbenzamide], 122 °C.
In turn, `O=Cc1ccc(O)cc1O` [b-Resorcylaldehyde] displayed a melting point of 136 °C.
Take `CC(=O)c1ccc2c(c1)CCO2` [5-acetyl-2,3-dihydrobenzo[b]furan]: the melting point came out at 58 °C.
As for `CC1(C)COB(B2OCC(C)(C)CO2)OC1` [bis(neopentyl glycolato)diboron], the figure is 183 °C; as for `CCOc1ccc(NC(C)=O)cc1` [N-(4-Ethoxyphenyl)acetamide], 134 °C; as for `O=C(Cl)OCC1c2ccccc2-c2ccccc21` [9-fluorenylmethyl chloroformate], 62 °C.
Under `C[Si](C)(C)O[Si](C)(C)C` [hexamethyldisiloxane] stands -67 °C; under `C=CCC1(c2ccccc2)C(=O)NC(=O)NC1=O` [5-allyl-5-phenylbarbiturate], 158 °C; under `OCCN(CCO)CCO` [triethanolamine], 20 °C.
Under `Clc1cc(Cl)c(Cl)cc1Cl` [1,2,4,5-tetrachlorobenzene] stands 140 °C.
Consider `Cc1ncc([N+](=O)[O-])n1CCO` [2-(2-Methyl-5-nitro-1H-imidazol-1-yl)ethanol], for which the melting point worked out at 160 °C.
As for `COc1cc(F)ccc1C(=O)O` [4-fluoro-2-methoxybenzoic acid], the figure is 135 °C.
As for `O=C(O)c1ccccc1O` [Salicylic acid], the figure is 161 °C; as for `Nc1ccc(Cl)cc1` [4-chloroaniline], 70 °C; as for `NC(=O)CCCCC(N)=O` [Adipamide], 220 °C.
As for `Oc1cccc2cccnc12` [Quinolin-8-ol], the figure is 76 °C; as for `COc1ccc2c(C(=O)c3ccc(Cl)cc3)c(C)n(CC(=O)O)c2c1` [clometacin], 242 °C.

The values above are taken from the Bradley open melting point set (2014).
